Experiment: Test B: In-vitro competitive aortic tissue binding assay
Conditions: 100 μM compound pre-incubated overnight at 37° C. with rat aortic homogenate, competition with 100 μM [14C] WO2010/128324 Ex. 3
Description: To assist the design of DPP1 inhibitors with a decreased risk of binding to elastin rich tissues, such as the aorta, the in-vitro competitive aortic binding assay disclosed below (Test B) was developed to facilitate the selection process.
Test B: In-vitro competitive aortic tissue binding assay Aortic homogenate was prepared from the thoracic aortae of Han Wistar rats. Freshly isolated thoracic aortae were frozen, and later thawed and stripped of non-elastic material. […] Homogenate concentration was adjusted to 30 mg/mL in Puck's saline, and aliquots were stored at −80° C. until use. Positive and negative control compounds and test compounds were made up to 100 mM in DMSO, and added to 1 mL aliquots of aortic homogenate in Puck's saline for a final concentration of 100 μM. Homogenate samples were pre-incubated with test compounds at 37° C., rotating, overnight. [^14C]4-Amino-N-[(1S)-1-cyano-2-(4′-cyanobiphenyl-4-yl)ethyl]tetrahydro-2H-pyran-4-carboxamide was then added to all samples to a final concentration of 100 μM, and samples were incubated at 37° C., rotating, for a further 2 h. Protein was precipitated from each sample by the addition of 10 mL acetone, pre-chilled to −20° C. Samples were left overnight at −20° C. to allow complete precipitation. Precipitate was pelleted by centrifugation at 4,500×g at 4° C. for 20 min, an aliquot of supernatant was removed for analysis, and the remainder of the supernatant discarded. Precipitate was washed by resuspension in 10 mL 80% methanol in distilled water, and re-pelleted by centrifugation at 4,500×g at 4° C. for 20 min. […] After final wash, precipitate was air-dried, and dissolved overnight in 1 mL NCSII Tissue Solubiliser. 1 mL aliquots of supernatants were added to 5 mL Ultima Gold scintillation fluid (Perkin Elmer, MA, U.S.A.), and 1 mL solubilised pellets were added to 5 mL Hionic-Fluor scintillation fluid (Perkin Elmer, MA, U.S.A.). Radioactivity of samples was determined on a Beckman LS6500 multipurpose scintillation counter (Beckman Coulter, IN, U.S.A.). […] Duplicate samples were tested for each compound on each experimental occasion, and at least two experiments were run for each test compound. […] 1-way ANOVA and Bonferroni's multiple comparison tests were performed to calculate significance of differences from vehicle control.
In the case of `Cn1c(=O)oc2ccc(-c3ccc(C[C@@H](C#N)NC(=O)[C@@H]4CNCCCO4)cc3)cc21` [Example 2, (2S)-N-{(1S)-1-Cyano-2-[4-(3-methyl-2-oxo-2,3-dihydro-1,3-benzoxazol-5-yl)phenyl]ethyl}-1,4-oxazepane-2-carboxamide], the “Aortic Tissue Binding” value is reported as “No binder”. In the case of `N#Cc1ccc(-c2ccc(C[C@@H](C#N)NC(=O)[C@@H]3CCCCN3)cc2)cc1` [WO2009/074829 (Example 24)], the “Aortic Tissue Binding” value is reported as “Binder”. In the case of `Cn1c(=O)oc2ccc(-c3ccc(C[C@@H](C#N)NC(=O)[C@@H]4CCCCN4)cc3)cc21` [WO2009/074829 (Example 96)], the “Aortic Tissue Binding” value is reported as “Medium binder”. For `N#Cc1ccc(-c2ccc(C[C@@H](C#N)NC(=O)C3(N)CCOCC3)cc2)cc1` [WO2010/128324 (Ex. 3), 4-amino-N-[(1S)-1-cyano-2-(4′-cyanobiphenyl-4-yl)ethyl]tetrahydro-2H-pyran-4-carboxamide], the “Aortic Tissue Binding” value was “Strong binder (reference)”. With `Cn1c(=O)oc2ccc(-c3ccc(C[C@@H](C#N)NC(=O)C4(N)CCOCC4)cc3)cc21` [WO2010/128324 (Example 17)] the “Aortic Tissue Binding” value was “Strong binder”.

Reference: US11673871B2, “Certain (2S)-N-[(1S)-1-cyano-2-phenylethyl]-1,4-oxazepane-2-carboxamides as dipeptidyl peptidase 1 inhibitors” (AstraZeneca AB, priority 2014, dated 2023)
